Here are results for 2 compounds from US11701315B2, “High energy visible light filter systems with yellowness index values” (High Performance Optics, Inc., priority 2006, dated 2023).

The conditions of data set [1]: in methanol, cited from earlier work.
A short description of data set [2]: Transmission and absorption properties stated in the text for known lenses and dyes. The class given is physicochemical.

As for `CC1=C(/C=C/C(C)=C/C=C/C(C)=C/c2cc(/C=C/C=C(C)/C=C/C3=C(C)CCCC3(C)C)cc[n+]2CCO)C(C)(C)CCC1` [A2E], in data set [1] (monitored at 600 nm emission), the “maximum of excitation spectrum” value is listed as 418 nm. The “major peak of absorbance spectrum” value in data set [1] is 435 nm. `c1cc2cccc3c4cccc5cccc(c(c1)c23)c54` [perylene]: the absorption maximum in data set [2] amounted to 437 nm.
